Data as given in ChEMBL document CHEMBL1155850, “Synthesis and biological evaluation of a focused library of beauveriolides” (Bioorg Med Chem Lett, 2008).

Biological target: T1, Sterol O-acyltransferase 1 (Mus musculus) (UniProt Q61263)
T1 sequence (whole entry): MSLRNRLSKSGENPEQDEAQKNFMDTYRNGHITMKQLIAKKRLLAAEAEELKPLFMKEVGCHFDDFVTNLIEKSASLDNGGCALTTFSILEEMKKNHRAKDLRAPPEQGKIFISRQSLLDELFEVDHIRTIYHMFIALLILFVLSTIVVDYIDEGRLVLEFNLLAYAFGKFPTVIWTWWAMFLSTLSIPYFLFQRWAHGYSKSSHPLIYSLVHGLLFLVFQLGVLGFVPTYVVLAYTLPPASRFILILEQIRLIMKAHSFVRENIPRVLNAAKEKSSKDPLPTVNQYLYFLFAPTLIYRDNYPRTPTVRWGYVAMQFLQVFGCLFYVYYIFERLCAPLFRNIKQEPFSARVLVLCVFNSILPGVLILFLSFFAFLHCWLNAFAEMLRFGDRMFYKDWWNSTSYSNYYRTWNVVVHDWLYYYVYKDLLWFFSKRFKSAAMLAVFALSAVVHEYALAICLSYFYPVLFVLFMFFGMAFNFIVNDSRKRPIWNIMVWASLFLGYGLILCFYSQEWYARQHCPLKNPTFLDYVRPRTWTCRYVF
Test: Inhibition of ACAT in mouse liver microsomes at 20 uM
Conditions: Microsome

| inhibition | SMILES |
| --- | --- |
| 95% | CCCC[C@H](C)[C@@H]1CC(=O)N[C@@H](Cc2ccccc2)C(=O)N[C@@H](C)C(=O)N[C@H](CC(C)C)C(=O)O1 [BEAUVERIOLIDE I] |
| 20% | CCCC[C@H](C)[C@@H]1CC(=O)N[C@H](Cc2ccccc2)C(=O)N[C@@H](C)C(=O)N[C@H]([C@@H](C)CC)C(=O)O1 |
| 91% | CCCC[C@H](C)[C@@H]1CC(=O)N[C@@H](Cc2ccccc2)C(=O)N[C@@H](C)C(=O)N[C@H]([C@@H](C)CC)C(=O)O1 [BEAUVERIOLIDE III] |
| 8% | CCCC[C@H](C)[C@@H]1CC(=O)N[C@H](Cc2ccccc2)C(=O)N[C@@H](CC(N)=O)C(=O)N[C@H](Cc2ccccc2)C(=O)O1 |
| 43% | CCCC[C@H](C)[C@@H]1CC(=O)N[C@@H](Cc2ccccc2)C(=O)N[C@@H](CC(N)=O)C(=O)N[C@H](CC(C)C)C(=O)O1 |
| 87% | CCCC[C@H](C)[C@@H]1CC(=O)N[C@H](Cc2ccccc2)C(=O)N[C@@H](C)C(=O)N[C@H](CC(C)C)C(=O)O1 |
| 40% | CCCC[C@H](C)[C@@H]1CC(=O)N[C@H](Cc2ccccc2)C(=O)N[C@@H](CO)C(=O)N[C@H](CC(C)C)C(=O)O1 |

Continued, compound first:

| SMILES | inhibition |
| --- | --- |
| CCCC[C@H](C)[C@@H]1CC(=O)N[C@@H](Cc2ccccc2)C(=O)N[C@H](C)C(=O)N[C@H]([C@@H](C)CC)C(=O)O1 | 94% |
| CCCC[C@H](C)[C@@H]1CC(=O)N[C@@H](C(c2ccccc2)c2ccccc2)C(=O)N[C@@H](C)C(=O)N[C@H](Cc2ccccc2)C(=O)O1 | 71% |
| CCCC[C@H](C)[C@@H]1CC(=O)N[C@@H](C(c2ccccc2)c2ccccc2)C(=O)N[C@@H](C)C(=O)N[C@H](CC(C)C)C(=O)O1 | 83% |
| CCCC[C@H](C)[C@@H]1CC(=O)N[C@@H](C(c2ccccc2)c2ccccc2)C(=O)N[C@H](C)C(=O)N[C@H]([C@@H](C)CC)C(=O)O1 | 91% |
| CCCC[C@H](C)[C@@H]1CC(=O)N[C@H](Cc2ccccc2)C(=O)N[C@H](C)C(=O)N[C@H](Cc2ccccc2)C(=O)O1 | 60% |
| CCCC[C@H](C)[C@@H]1CC(=O)N[C@@H](C(c2ccccc2)c2ccccc2)C(=O)N[C@@H](C)C(=O)N[C@H]([C@H](C)CC)C(=O)O1 | 88% |
| CCCC[C@H](C)[C@@H]1CC(=O)N[C@@H](Cc2ccccc2)C(=O)N[C@@H](C)C(=O)N[C@H](Cc2ccccc2)C(=O)O1 | 76% |
| CCCC[C@H](C)[C@@H]1CC(=O)N[C@@H](Cc2ccccc2)C(=O)N[C@H](C)C(=O)N[C@H](Cc2ccccc2)C(=O)O1 | 94% |
| CCCC[C@H](C)[C@@H]1CC(=O)N[C@@H](C(c2ccccc2)c2ccccc2)C(=O)N[C@@H](CO)C(=O)N[C@H](Cc2ccccc2)C(=O)O1 | 96% |
| CCCC[C@H](C)[C@@H]1CC(=O)N[C@@H](C(c2ccccc2)c2ccccc2)C(=O)N[C@H](C)C(=O)N[C@H]([C@H](C)CC)C(=O)O1 | 97% |
| CCCC[C@H](C)[C@@H]1CC(=O)N[C@@H](C(c2ccccc2)c2ccccc2)C(=O)N[C@H](C)C(=O)N[C@H](Cc2ccccc2)C(=O)O1 | 75% |

System: Macrophage
Test: Inhibition of cholesterol ester synthesis in mouse macrophages assessed as lipid droplet accumulation
Format: functional, cell-based
Conditions: not given

| IC50 | SMILES |
| --- | --- |
| 0.6 µM | CCCC[C@H](C)[C@@H]1CC(=O)N[C@@H](Cc2ccccc2)C(=O)N[C@@H](C)C(=O)N[C@H](CC(C)C)C(=O)O1 [BEAUVERIOLIDE I] |
| > 20 µM | CCCC[C@H](C)[C@@H]1CC(=O)N[C@H](Cc2ccccc2)C(=O)N[C@@H](C)C(=O)N[C@H]([C@@H](C)CC)C(=O)O1 |
| 0.4 µM | CCCC[C@H](C)[C@@H]1CC(=O)N[C@@H](Cc2ccccc2)C(=O)N[C@@H](C)C(=O)N[C@H]([C@@H](C)CC)C(=O)O1 [BEAUVERIOLIDE III] |
| > 20 µM | CCCC[C@H](C)[C@@H]1CC(=O)N[C@H](Cc2ccccc2)C(=O)N[C@@H](CC(N)=O)C(=O)N[C@H](Cc2ccccc2)C(=O)O1 |
| > 20 µM | CCCC[C@H](C)[C@@H]1CC(=O)N[C@@H](Cc2ccccc2)C(=O)N[C@@H](CC(N)=O)C(=O)N[C@H](CC(C)C)C(=O)O1 |
| > 20 µM | CCCC[C@H](C)[C@@H]1CC(=O)N[C@H](Cc2ccccc2)C(=O)N[C@@H](C)C(=O)N[C@H](CC(C)C)C(=O)O1 |
| > 20 µM | CCCC[C@H](C)[C@@H]1CC(=O)N[C@H](Cc2ccccc2)C(=O)N[C@@H](CO)C(=O)N[C@H](CC(C)C)C(=O)O1 |

More lines, now with the values behind:

| SMILES | IC50 |
| --- | --- |
| CCCC[C@H](C)[C@@H]1CC(=O)N[C@@H](Cc2ccccc2)C(=O)N[C@H](C)C(=O)N[C@H]([C@@H](C)CC)C(=O)O1 | 0.8 µM |
| CCCC[C@H](C)[C@@H]1CC(=O)N[C@@H](C(c2ccccc2)c2ccccc2)C(=O)N[C@@H](C)C(=O)N[C@H](Cc2ccccc2)C(=O)O1 | 0.08 µM |
| CCCC[C@H](C)[C@@H]1CC(=O)N[C@@H](C(c2ccccc2)c2ccccc2)C(=O)N[C@@H](C)C(=O)N[C@H](CC(C)C)C(=O)O1 | 0.08 µM |
| CCCC[C@H](C)[C@@H]1CC(=O)N[C@@H](C(c2ccccc2)c2ccccc2)C(=O)N[C@H](C)C(=O)N[C@H]([C@@H](C)CC)C(=O)O1 | 0.02 µM |
| CCCC[C@H](C)[C@@H]1CC(=O)N[C@H](Cc2ccccc2)C(=O)N[C@H](C)C(=O)N[C@H](Cc2ccccc2)C(=O)O1 | 0.3 µM |
| CCCC[C@H](C)[C@@H]1CC(=O)N[C@@H](C(c2ccccc2)c2ccccc2)C(=O)N[C@@H](C)C(=O)N[C@H]([C@H](C)CC)C(=O)O1 | 0.02 µM |
| CCCC[C@H](C)[C@@H]1CC(=O)N[C@@H](Cc2ccccc2)C(=O)N[C@@H](C)C(=O)N[C@H](Cc2ccccc2)C(=O)O1 | 7.5 µM |
| CCCC[C@H](C)[C@@H]1CC(=O)N[C@@H](Cc2ccccc2)C(=O)N[C@H](C)C(=O)N[C@H](Cc2ccccc2)C(=O)O1 | 10 µM |
| CCCC[C@H](C)[C@@H]1CC(=O)N[C@@H](C(c2ccccc2)c2ccccc2)C(=O)N[C@@H](CO)C(=O)N[C@H](Cc2ccccc2)C(=O)O1 | 0.16 µM |
| CCCC[C@H](C)[C@@H]1CC(=O)N[C@@H](C(c2ccccc2)c2ccccc2)C(=O)N[C@H](C)C(=O)N[C@H]([C@H](C)CC)C(=O)O1 | 0.02 µM |
| CCCC[C@H](C)[C@@H]1CC(=O)N[C@@H](C(c2ccccc2)c2ccccc2)C(=O)N[C@H](C)C(=O)N[C@H](Cc2ccccc2)C(=O)O1 | 0.24 µM |
